# Measurements: ChEMBL document CHEMBL1122789, “Synthesis and biological activity of structural analogues of the anticancer benzophenanthridine alkaloid nitidine chloride” (1984)
# Tests used:
# P388 [1] = experiment: Evaluated for anticancer activity in survival tumor system P388 lymphocytic leukemia at a dose of 50 mg/kg;Number of Tested survived/number of control survived (5/5); settings: Mus musculus
# L1210 [2] = experiment: Evaluated for anticancer activity in survival tumor system L1210 lymphoid leukemia at a dose of 3.125 mg/kg; Number of Tested survived/number of control survived (6/6); assay type: functional, Mus musculus
# [3] = tested on: Lewis lung carcinoma cell line; experiment: Evaluated for anticancer activity in survival tumor system tumor system Lewis lung (LL) carcinoma at a dose of 100 mg/kg; Number of Tested survived/number of control survived (10/10); assay type: functional, Mus musculus
# B16 [4] = experiment: Evaluated for anticancer activity in survival tumor system B16 melanocarcinoma at a dose of 25 mg/kg, value was reported as weight difference; assay type: functional, Mus musculus
# P388 [5] = experiment: Evaluated for anticancer activity in survival tumor system P388 lymphocytic leukemia at a dose of 100 mg/kg, value was reported as weight difference; assay type: functional, Mus musculus
# L1210 [6] = experiment: Evaluated for anticancer activity in survival tumor system L1210 lymphoid leukemia at dose 6.25 mg/kg; assay type: functional, Mus musculus
# L1210 [7] = experiment: Evaluated for anticancer activity in survival tumor system L1210 lymphoid leukemia at a dose of 6.25 mg/kg; Number of Tested survived/number of control survived (6/6); assay type: functional, Mus musculus
# B16 [8] = experiment: Evaluated for anticancer activity in survival tumor system B16 melanocarcinoma at a dose of 6.25 mg/kg; Number of Tested survived/number of control survived (10/10); assay type: functional, Mus musculus
# P388 [9] = experiment: Evaluated for anticancer activity in survival tumor system P388 lymphocytic leukemia at dose 25 mg/kg; assay type: functional, Mus musculus
# [10] = Evaluated for anticancer activity in tumor inhibition system colon 38 tumor at dose 200 mg/kg; assay type: functional, Mus musculus
# B16 [11] = experiment: Evaluated for anticancer activity in survival tumor system B16 melanocarcinoma at dose 50 mg/kg; assay type: functional, Mus musculus
# B16 [12] = experiment: Evaluated for anticancer activity in survival tumor system B16 melanocarcinoma at dose 6.25 mg/kg; assay type: functional, Mus musculus
# B16 [13] = experiment: Evaluated for anticancer activity in survival tumor system B16 melanocarcinoma at dose 25 mg/kg; assay type: functional, Mus musculus
# L1210 [14] = experiment: Evaluated for anticancer activity in survival tumor system L1210 lymphoid leukemia at dose 12.5 mg/kg; assay type: functional, Mus musculus
# L1210 [15] = experiment: Evaluated for anticancer activity in survival tumor system L1210 lymphoid leukemia at a dose of 12.5 mg/kg, value was reported as weight difference; assay type: functional, Mus musculus
# B16 [16] = experiment: Evaluated for anticancer activity in survival tumor system B16 melanocarcinoma at a dose of 100 mg/kg, value was reported as weight difference; assay type: functional, Mus musculus
# [17] = tested on: Lewis lung carcinoma cell line; experiment: Evaluated for anticancer activity in survival tumor system Lewis lung (LL) carcinoma at a dose of 12.5 mg/kg, value was reported as weight difference; assay type: functional, Mus musculus
# [18] = tested on: Lewis lung carcinoma cell line; experiment: Evaluated for anticancer activity in survival tumor system Lewis lung (LL) carcinoma at a dose of 200 mg/kg, value was reported as weight difference; assay type: functional, Mus musculus
# [19] = Evaluated for anticancer activity in tumor inhibition system colon 38 tumors at a dose of 200 mg/kg; Number of Tested survived/number of control survived (10/10); assay type: functional, Mus musculus
# [20] = Evaluated for anticancer activity in tumor inhibition system colon 38 tumors at a dose of 400 mg/kg; Number of Tested survived/number of control survived (10/10); assay type: functional, Mus musculus
# [21] = Evaluated for anticancer activity in tumor inhibition system colon 38 at a dose of 400 mg/kg, value was reported as weight difference; assay type: functional, Mus musculus
# B16 [22] = experiment: Evaluated for anticancer activity in survival tumor system B16 melanocarcinoma at dose 100 mg/kg; assay type: functional, Mus musculus
# [23] = Evaluated for anticancer activity in tumor inhibition system colon 38 at a dose of 50 mg/kg, value was reported as weight difference; assay type: functional, Mus musculus
# [24] = Evaluated for anticancer activity in tumor inhibition system CD8F1 mammary tumors at a dose of 125 mg/kg; Number of Tested survived/number of control survived (10/10); assay type: functional, Mus musculus
# B16 [25] = experiment: Evaluated for anticancer activity in survival tumor system B16 melanocarcinoma at a dose of 6.25 mg/kg, value was reported as weight difference; assay type: functional, Mus musculus
# P388 [26] = experiment: Evaluated for anticancer activity in survival tumor system P388 lymphocytic leukemia at dose 50 mg/kg; assay type: functional, Mus musculus
# MX1 [27] = experiment: Evaluated for anticancer activity in tumor inhibition system MX-1 breast xenograph at a dose of 150 mg/kg; Number of Tested survived/number of control survived (5/6); settings: Homo sapiens
# [28] = Evaluated for anticancer activity in tumor inhibition system CD8F1 mammary tumors at a dose of 250 mg/kg; number of Tested survived/number of control survived; assay type: functional, Mus musculus
# L1210 [29] = experiment: Evaluated for anticancer activity in survival tumor system L1210 lymphoid leukemia at a dose of 50 mg/kg, value was reported as weight difference; assay type: functional, Mus musculus
# [30] = Evaluated for anticancer activity in tumor inhibition system colon 38 at a dose of 200 mg/kg, value was reported as weight difference; assay type: functional, Mus musculus
# B16 [31] = experiment: Evaluated for anticancer activity in survival tumor system B16 melanocarcinoma at a dose of 200 mg/kg; Number of Tested survived/number of control survived (4/10); assay type: functional, Mus musculus
# [32] = Evaluated for anticancer activity in tumor inhibition system CD8F1 mammary tumor at dose 125 mg/kg; assay type: functional, Mus musculus
# P388 [33] = experiment: Evaluated for anticancer activity in survival tumor system P388 lymphocytic leukemia at a dose of 12.5 mg/kg;Number of Tested survived/number of control survived (5/6); assay type: functional, Mus musculus
# MX1 [34] = experiment: Evaluated for anticancer activity in tumor inhibition system MX-1 breast xenograph at dose 75 mg/kg; assay type: functional, Homo sapiens
# P388 [35] = experiment: Evaluated for anticancer activity in survival tumor system P388 lymphocytic leukemia at a dose of 200 mg/kg; Number of Tested survived/number of control survived (0/6); assay type: functional, Mus musculus
# B16 [36] = experiment: Evaluated for anticancer activity in survival tumor system B16 melanocarcinoma at dose 12.5 mg/kg; assay type: functional, Mus musculus
# [37] = Evaluated for anticancer activity in tumor inhibition system CD8F mammary tumor at a dose of 125 mg/kg, value was reported as weight difference; assay type: functional, Mus musculus
# [38] = Evaluated for anticancer activity in tumor inhibition system colon 38 tumor at dose 50 mg/kg; assay type: functional, Mus musculus
# MX1 [39] = experiment: Evaluated for anticancer activity in tumor inhibition system MX-1 breast xenograph at a dose of 600 mg/kg; Number of Tested survived/number of control survived (0/6); assay type: functional, Homo sapiens
# [40] = tested on: Lewis lung carcinoma cell line; experiment: Evaluated for anticancer activity in survival tumor system Lewis lung (LL) carcinoma at a dose of 50 mg/kg, value was reported as weight difference; assay type: functional, Mus musculus
# [41] = tested on: Lewis lung carcinoma cell line; experiment: Evaluated for anticancer activity in survival tumor system Lewis lung (LL) carcinoma at a dose of 25 mg/kg, value was reported as weight difference; assay type: functional, Mus musculus
# L1210 [42] = experiment: Evaluated for anticancer activity in survival tumor system L1210 lymphoid leukemia at a dose of 25 mg/kg, value was reported as weight difference; assay type: functional, Mus musculus
# MX1 [43] = experiment: Evaluated for anticancer activity in tumor inhibition system MX-1 breast xenograph at a dose of 150mg/kg, value was reported as weight difference; assay type: functional, Homo sapiens
# [44] = Evaluated for anticancer activity in tumor inhibition system CD8F1 mammary tumor at dose 62 mg/kg; assay type: functional, Mus musculus
# L1210 [45] = experiment: Evaluated for anticancer activity in survival tumor system L1210 lymphoid leukemia at dose 50 mg/kg; assay type: functional, Mus musculus
smiles,measurement,setting,value
COc1cc2c[n+](C)c3c(c2cc1OC)Cc1cc2c(cc1-3)OCO2.[Cl-],Survival,P388 [1],5
same,Survival,L1210 [2],6
same,Survival,[3],10
same,Weight change,B16 [4],-2.5
same,Weight change,P388 [5],-5.8
same,T/C,L1210 [6],154%
same,Survival,L1210 [7],6
same,Survival,B16 [8],10
same,T/C,P388 [9],151%
same,T/C,[10],97%
same,T/C,B16 [11],147%
same,T/C,B16 [12],148%
same,T/C,B16 [13],139%
same,T/C,L1210 [14],156%
same,Weight change,L1210 [15],-2.6
same,Weight change,B16 [16],-4.6
same,Weight change,[17],-0.9
same,Weight change,[18],-4.9
same,Survival,[19],10
same,Survival,[20],10
same,Weight change,[21],-6.2
same,T/C,B16 [22],120%
same,Weight change,[23],-0.8
same,Survival,[24],10
same,Weight change,B16 [25],-0.5
same,T/C,P388 [26],149%
same,Survival,MX1 [27],5
same,Survival,[28],2
same,Weight change,L1210 [29],-5.8
same,Weight change,[30],-4.3
same,Survival,B16 [31],4
same,T/C,[32],105%
same,Survival,P388 [33],5
same,T/C,MX1 [34],102%
same,Survival,P388 [35],0
same,T/C,B16 [36],131%
same,Weight change,[37],-3.2
same,T/C,[38],94%
same,Survival,MX1 [39],0
same,Weight change,[40],-2.6
same,Weight change,[41],-2.4
same,Weight change,L1210 [42],-5.4
same,Weight change,MX1 [43],-6
same,T/C,[44],92%
same,T/C,L1210 [45],198%
